Columns and labels:
[1] = target: T1, D(4) dopamine receptor (Homo sapiens) (UniProt P21917); conditions: Compound concentration 10.0 uM
T1 sequence (whole entry): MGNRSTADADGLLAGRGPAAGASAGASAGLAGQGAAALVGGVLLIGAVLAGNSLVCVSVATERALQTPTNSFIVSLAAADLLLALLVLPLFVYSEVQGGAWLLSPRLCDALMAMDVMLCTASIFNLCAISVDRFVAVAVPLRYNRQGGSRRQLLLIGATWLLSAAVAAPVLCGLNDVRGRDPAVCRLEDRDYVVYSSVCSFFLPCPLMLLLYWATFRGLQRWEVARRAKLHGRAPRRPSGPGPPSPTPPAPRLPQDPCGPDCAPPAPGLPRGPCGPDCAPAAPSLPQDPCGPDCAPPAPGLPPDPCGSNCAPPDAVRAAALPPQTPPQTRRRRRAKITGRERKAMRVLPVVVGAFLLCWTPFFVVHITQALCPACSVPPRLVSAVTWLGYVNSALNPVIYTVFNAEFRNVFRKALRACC

[2] = test system: Receptor-type tyrosine-protein kinase FLT3 (Homo sapiens), P36888 [N841I]; conditions: Compound concentration 1000.0 nM
[3] = target: Tyrosine-protein kinase ABL2 (Homo sapiens) (UniProt P42684); conditions: Compound concentration 1000.0 nM
[4] = target: Alpha-1B adrenergic receptor (Homo sapiens) (UniProt P35368); conditions: Compound concentration 10.0 uM
[5] = test system: Tyrosine-protein kinase ABL1 (Homo sapiens), P00519 [T315I]; conditions: Compound concentration 1000.0 nM
[6] = target: Serine/threonine-protein kinase 17A (Homo sapiens) (UniProt Q9UEE5); conditions: Compound concentration 1000.0 nM
[7] = target: Serine/threonine-protein kinase Sgk2 (Homo sapiens) (UniProt Q9HBY8); conditions: Compound concentration 1000.0 nM
Sequence of Serine/threonine-protein kinase Sgk2 (Homo sapiens) (Q9HBY8 whole entry): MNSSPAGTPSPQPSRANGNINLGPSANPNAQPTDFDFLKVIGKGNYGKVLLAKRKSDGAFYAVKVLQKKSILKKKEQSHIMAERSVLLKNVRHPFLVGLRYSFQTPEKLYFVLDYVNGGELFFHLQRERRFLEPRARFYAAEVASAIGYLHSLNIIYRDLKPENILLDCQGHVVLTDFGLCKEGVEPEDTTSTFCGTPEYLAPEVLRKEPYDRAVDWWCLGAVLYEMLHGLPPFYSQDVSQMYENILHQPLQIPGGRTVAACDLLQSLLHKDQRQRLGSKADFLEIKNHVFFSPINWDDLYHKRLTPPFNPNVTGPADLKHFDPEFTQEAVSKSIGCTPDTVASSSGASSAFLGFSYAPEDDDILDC

[8] = target: TRAF2 and NCK-interacting protein kinase (Homo sapiens) (UniProt Q9UKE5); conditions: Compound concentration 1000.0 nM
[9] = target: Dual specificity tyrosine-phosphorylation-regulated kinase 1B (Homo sapiens) (UniProt Q9Y463); conditions: Compound concentration 1000.0 nM
Sequence of Dual specificity tyrosine-phosphorylation-regulated kinase 1B (Homo sapiens) (Q9Y463 whole entry, looked up): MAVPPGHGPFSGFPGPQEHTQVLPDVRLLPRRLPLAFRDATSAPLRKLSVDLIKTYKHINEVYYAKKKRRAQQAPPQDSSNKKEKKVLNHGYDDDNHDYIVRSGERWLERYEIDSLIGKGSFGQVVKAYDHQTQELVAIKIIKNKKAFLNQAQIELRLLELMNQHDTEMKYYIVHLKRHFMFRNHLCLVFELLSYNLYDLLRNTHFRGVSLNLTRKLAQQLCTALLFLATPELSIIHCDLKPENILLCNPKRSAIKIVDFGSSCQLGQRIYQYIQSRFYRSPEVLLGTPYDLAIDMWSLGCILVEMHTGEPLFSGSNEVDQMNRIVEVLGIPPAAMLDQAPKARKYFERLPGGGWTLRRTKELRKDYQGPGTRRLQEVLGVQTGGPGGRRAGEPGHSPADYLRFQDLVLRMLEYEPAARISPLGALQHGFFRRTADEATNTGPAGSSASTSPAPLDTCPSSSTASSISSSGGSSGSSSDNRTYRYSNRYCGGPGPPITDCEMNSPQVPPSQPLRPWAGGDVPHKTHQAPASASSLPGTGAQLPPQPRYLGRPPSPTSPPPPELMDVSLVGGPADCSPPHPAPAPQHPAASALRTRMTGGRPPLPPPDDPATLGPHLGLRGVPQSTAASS

[10] = target: Calcium/calmodulin-dependent protein kinase kinase 1 (Homo sapiens) (UniProt Q8N5S9); conditions: Compound concentration 1000.0 nM
Sequence of Calcium/calmodulin-dependent protein kinase kinase 1 (Homo sapiens) (Q8N5S9 whole entry, looked up): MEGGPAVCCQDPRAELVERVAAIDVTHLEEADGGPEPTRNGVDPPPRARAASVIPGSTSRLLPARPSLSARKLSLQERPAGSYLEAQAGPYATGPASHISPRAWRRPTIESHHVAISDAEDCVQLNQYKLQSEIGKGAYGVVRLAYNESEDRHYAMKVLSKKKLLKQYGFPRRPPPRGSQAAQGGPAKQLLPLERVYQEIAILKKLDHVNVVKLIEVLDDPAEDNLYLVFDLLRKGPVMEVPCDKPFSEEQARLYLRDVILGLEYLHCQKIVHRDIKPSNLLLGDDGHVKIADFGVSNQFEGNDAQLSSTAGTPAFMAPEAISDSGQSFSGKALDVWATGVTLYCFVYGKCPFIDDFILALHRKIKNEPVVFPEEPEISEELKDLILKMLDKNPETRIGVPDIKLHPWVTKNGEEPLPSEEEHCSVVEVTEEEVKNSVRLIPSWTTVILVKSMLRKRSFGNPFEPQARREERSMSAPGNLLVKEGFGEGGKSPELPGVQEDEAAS

[11] = target: Serine/threonine-protein kinase PLK4 (Homo sapiens) (UniProt O00444); conditions: Compound concentration 1000.0 nM
[12] = test system: Epidermal growth factor receptor (Homo sapiens), P00533 [L858R]; conditions: Compound concentration 1000.0 nM
[13] = target: MAP kinase-activated protein kinase 5 (Homo sapiens) (UniProt Q8IW41); conditions: Compound concentration 1000.0 nM
[14] = target: Activin receptor type-1B (Homo sapiens) (UniProt P36896); conditions: Compound concentration 1000.0 nM
Sequence of Activin receptor type-1B (Homo sapiens) (P36896 whole entry): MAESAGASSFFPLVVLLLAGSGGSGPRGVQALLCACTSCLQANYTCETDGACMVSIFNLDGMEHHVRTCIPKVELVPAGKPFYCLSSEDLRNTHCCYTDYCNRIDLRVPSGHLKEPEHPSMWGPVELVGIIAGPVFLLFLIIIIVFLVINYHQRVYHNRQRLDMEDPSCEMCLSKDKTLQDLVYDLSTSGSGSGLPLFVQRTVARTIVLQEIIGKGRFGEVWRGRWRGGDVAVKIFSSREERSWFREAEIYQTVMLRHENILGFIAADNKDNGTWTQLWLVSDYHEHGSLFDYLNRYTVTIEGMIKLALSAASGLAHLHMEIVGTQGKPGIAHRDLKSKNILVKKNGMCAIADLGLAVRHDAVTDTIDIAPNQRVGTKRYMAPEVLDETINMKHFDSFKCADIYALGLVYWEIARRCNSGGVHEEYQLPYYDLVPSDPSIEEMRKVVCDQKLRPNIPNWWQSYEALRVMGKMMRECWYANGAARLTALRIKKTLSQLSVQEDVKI

[15] = test system: Tyrosine-protein kinase ABL1 (Homo sapiens), P00519 [F317L]; conditions: Compound concentration 1000.0 nM
[16] = target: Serine/threonine-protein kinase Sgk3 (Homo sapiens) (UniProt Q96BR1); conditions: Compound concentration 1000.0 nM
[17] = target: Leucine-rich repeat serine/threonine-protein kinase 2 (Homo sapiens) (UniProt Q5S007); conditions: Compound concentration 1000.0 nM
[18] = target: Cytoplasmic tyrosine-protein kinase BMX (Homo sapiens) (UniProt P51813); conditions: Compound concentration 1000.0 nM
[19] = target: Cyclin-dependent kinase 9 (Homo sapiens) (UniProt P50750); conditions: Compound concentration 1000.0 nM
Sequence of Cyclin-dependent kinase 9 (Homo sapiens) (P50750 whole entry): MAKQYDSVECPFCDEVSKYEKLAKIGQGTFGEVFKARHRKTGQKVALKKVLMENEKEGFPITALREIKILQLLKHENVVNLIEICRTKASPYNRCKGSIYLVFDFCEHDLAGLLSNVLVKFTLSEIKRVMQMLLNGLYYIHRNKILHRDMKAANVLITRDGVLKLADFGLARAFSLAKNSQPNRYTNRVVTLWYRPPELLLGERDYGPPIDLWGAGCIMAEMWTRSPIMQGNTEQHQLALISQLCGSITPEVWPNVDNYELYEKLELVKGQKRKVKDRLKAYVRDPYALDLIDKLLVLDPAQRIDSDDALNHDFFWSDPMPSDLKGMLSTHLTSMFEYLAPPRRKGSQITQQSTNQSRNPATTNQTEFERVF

[20] = target: Serine/threonine-protein kinase PLK3 (Homo sapiens) (UniProt Q9H4B4); conditions: Compound concentration 1000.0 nM
[21] = target: Muscarinic acetylcholine receptor M3 (Homo sapiens) (UniProt P20309); conditions: Compound concentration 10.0 uM
[22] = target: Serine/threonine-protein kinase SIK1 (Homo sapiens, UniProt P57059); conditions: Compound concentration 1000.0 nM
[23] = test system: Receptor-type tyrosine-protein kinase FLT3 (Homo sapiens), P36888 [UNDEFINED MUTATION]; conditions: Compound concentration 1000.0 nM
[24] = target: Interferon-induced, double-stranded RNA-activated protein kinase (Homo sapiens) (UniProt P19525); conditions: Compound concentration 1000.0 nM
[25] = target: Tyrosine-protein kinase JAK3 (Homo sapiens) (UniProt P52333); conditions: Compound concentration 1000.0 nM
[26] = target: Casein kinase II subunit alpha (Homo sapiens) (UniProt P68400); conditions: Compound concentration 1000.0 nM
[27] = target: Insulin receptor-related protein (Homo sapiens) (UniProt P14616); conditions: Compound concentration 1000.0 nM
[28] = target: Epidermal growth factor receptor (Homo sapiens) (UniProt P00533); conditions: Compound concentration 1000.0 nM
[29] = target: Serine/threonine-protein kinase DCLK3 (Homo sapiens) (UniProt Q9C098); conditions: Compound concentration 1000.0 nM
[30] = target: Protein-tyrosine kinase 2-beta (Homo sapiens) (UniProt Q14289); conditions: Compound concentration 1000.0 nM
Sequence of Protein-tyrosine kinase 2-beta (Homo sapiens) (Q14289 whole entry, looked up): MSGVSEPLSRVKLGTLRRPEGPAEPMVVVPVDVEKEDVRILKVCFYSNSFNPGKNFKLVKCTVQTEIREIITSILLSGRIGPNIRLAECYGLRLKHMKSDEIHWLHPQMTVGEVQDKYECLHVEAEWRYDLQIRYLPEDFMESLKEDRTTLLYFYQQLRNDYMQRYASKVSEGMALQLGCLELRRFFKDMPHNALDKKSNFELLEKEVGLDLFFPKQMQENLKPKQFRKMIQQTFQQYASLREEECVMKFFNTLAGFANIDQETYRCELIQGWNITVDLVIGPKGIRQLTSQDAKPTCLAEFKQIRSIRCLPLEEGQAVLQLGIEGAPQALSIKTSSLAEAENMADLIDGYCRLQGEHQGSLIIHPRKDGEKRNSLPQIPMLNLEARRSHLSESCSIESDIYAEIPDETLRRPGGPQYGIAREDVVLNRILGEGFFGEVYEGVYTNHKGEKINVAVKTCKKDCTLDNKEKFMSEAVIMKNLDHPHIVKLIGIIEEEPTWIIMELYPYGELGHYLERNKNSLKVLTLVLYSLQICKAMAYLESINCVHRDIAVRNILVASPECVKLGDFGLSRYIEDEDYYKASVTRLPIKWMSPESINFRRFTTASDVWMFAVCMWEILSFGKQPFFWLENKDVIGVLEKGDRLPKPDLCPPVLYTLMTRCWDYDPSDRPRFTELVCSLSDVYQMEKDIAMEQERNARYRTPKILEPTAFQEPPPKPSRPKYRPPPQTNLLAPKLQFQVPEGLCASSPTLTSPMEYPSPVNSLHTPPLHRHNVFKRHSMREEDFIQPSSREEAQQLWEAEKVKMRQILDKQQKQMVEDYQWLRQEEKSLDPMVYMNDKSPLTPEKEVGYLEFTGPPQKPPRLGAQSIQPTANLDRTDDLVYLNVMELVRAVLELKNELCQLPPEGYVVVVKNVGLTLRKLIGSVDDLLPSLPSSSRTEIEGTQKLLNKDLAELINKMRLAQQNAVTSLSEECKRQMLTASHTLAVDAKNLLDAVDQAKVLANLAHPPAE

[31] = target: Ribosomal protein S6 kinase alpha-6 (Homo sapiens) (UniProt Q9UK32); conditions: Compound concentration 1000.0 nM
[32] = target: Macrophage-stimulating protein receptor (Homo sapiens) (UniProt Q04912); conditions: Compound concentration 1000.0 nM
[33] = target: SNF-related serine/threonine-protein kinase (Homo sapiens) (UniProt Q9NRH2); conditions: Compound concentration 1000.0 nM
[34] = target: Mitogen-activated protein kinase kinase kinase kinase 1 (Homo sapiens) (UniProt Q92918); conditions: Compound concentration 1000.0 nM
Sequence of Mitogen-activated protein kinase kinase kinase kinase 1 (Homo sapiens) (Q92918 whole entry, looked up): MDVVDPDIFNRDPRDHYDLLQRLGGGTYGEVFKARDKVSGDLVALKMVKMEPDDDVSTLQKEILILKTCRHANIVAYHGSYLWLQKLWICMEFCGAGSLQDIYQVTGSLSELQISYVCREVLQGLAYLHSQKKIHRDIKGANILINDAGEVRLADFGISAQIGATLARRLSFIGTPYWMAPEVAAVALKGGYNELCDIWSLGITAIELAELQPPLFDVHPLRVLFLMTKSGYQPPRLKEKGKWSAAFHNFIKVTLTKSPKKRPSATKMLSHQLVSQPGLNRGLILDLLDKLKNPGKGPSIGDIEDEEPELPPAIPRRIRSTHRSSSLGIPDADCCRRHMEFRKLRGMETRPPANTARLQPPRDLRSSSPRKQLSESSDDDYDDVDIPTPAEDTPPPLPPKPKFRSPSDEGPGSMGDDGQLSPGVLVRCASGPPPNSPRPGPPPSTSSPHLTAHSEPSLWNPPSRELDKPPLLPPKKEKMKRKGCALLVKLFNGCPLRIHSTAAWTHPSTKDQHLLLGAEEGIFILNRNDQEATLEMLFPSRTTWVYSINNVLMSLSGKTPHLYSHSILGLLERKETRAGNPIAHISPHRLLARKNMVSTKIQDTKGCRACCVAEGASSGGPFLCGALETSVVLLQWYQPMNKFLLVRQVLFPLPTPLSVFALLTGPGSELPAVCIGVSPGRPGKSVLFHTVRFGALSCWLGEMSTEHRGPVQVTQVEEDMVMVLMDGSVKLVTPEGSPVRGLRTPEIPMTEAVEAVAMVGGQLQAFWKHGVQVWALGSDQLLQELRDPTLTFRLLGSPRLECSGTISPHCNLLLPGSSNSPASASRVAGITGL

[35] = target: Serine/threonine-protein kinase MAK (Homo sapiens) (UniProt P20794); conditions: Compound concentration 1000.0 nM
Sequence of Serine/threonine-protein kinase MAK (Homo sapiens) (P20794 whole entry): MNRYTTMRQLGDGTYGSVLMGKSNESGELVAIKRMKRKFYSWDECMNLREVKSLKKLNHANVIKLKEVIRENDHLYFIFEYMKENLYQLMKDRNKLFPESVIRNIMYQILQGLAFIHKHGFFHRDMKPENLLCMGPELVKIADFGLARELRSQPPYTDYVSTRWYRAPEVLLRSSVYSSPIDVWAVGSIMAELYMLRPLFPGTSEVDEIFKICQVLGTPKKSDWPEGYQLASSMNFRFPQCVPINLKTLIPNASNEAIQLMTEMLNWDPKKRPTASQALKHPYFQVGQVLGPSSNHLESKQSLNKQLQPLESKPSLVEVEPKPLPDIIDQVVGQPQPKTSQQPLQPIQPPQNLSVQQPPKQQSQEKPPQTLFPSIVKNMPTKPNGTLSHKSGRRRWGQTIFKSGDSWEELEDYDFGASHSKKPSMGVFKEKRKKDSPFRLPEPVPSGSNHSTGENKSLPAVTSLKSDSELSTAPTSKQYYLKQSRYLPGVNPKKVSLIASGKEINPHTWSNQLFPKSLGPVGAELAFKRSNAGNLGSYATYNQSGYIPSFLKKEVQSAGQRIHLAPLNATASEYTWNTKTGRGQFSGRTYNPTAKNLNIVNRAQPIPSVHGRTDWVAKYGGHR

[36] = target: Serine/threonine-protein kinase pim-1 (Homo sapiens) (UniProt P11309); conditions: Compound concentration 1000.0 nM
[37] = target: Receptor-type tyrosine-protein kinase FLT3 (Homo sapiens) (UniProt P36888); conditions: Compound concentration 1000.0 nM
[38] = test system: Tyrosine-protein kinase ABL1 (Homo sapiens), P00519 [H396P]; conditions: Compound concentration 1000.0 nM

Row | Compound | inhibition [1] | residual activity [2] | residual activity [3] | inhibition [4] | residual activity [5] | residual activity [6] | residual activity [7] | residual activity [8] | residual activity [9] | residual activity [10] | residual activity [11] | residual activity [12] | residual activity [13] | residual activity [14] | residual activity [15] | residual activity [16] | residual activity [17] | residual activity [18] | residual activity [19] | residual activity [20] | also measured
1 | CCCCN(CCCC)C(=O)CN1C[C@H](c2cc(OC)c3c(c2)OCO3)[C@@H](C(=O)O)[C@@H]1CC(C)(C)CCC [ABT-546] | 21.7% | 100% | 100% | -7.9% | 80.7% | 100% | 69.9% | 100% | 100% | 100% | 100% | 99.7% | 67.9% | 96.4% | 100% | 75.7% | 38% | 100% | 100% | 90.6% | inhibition [21]: -9.94%; residual activity [22]: 100%; residual activity [23]: 90.6%; residual activity [24]: 100%; residual activity [25]: 71.3%; residual activity [26]: 68.5%; residual activity [27]: 100%; residual activity [28]: 95.1%; residual activity [29]: 91.4%; residual activity [30]: 100%; residual activity [31]: 100%; residual activity [32]: 100%; residual activity [33]: 100%; residual activity [34]: 90.6%; residual activity [35]: 100%; residual activity [36]: 100%; residual activity [37]: 100%; residual activity [38]: 96.1%
2 | CCCCN(CCCC)C(=O)CN1C[C@@H](c2cc(OC)c3c(c2)OCO3)[C@H](C(=O)O)[C@H]1CC(C)(C)CCC [A-545] | 87.1% | 96.1% | 100% | 6.5% | 89.2% | 100% | 78.5% | 86% | 95% | 100% | 84.1% | 100% | 100% | 96.4% | 100% | 100% | 65.9% | 84.6% | 100% | 93.5% | inhibition [21]: 10.3%; residual activity [22]: 100%; residual activity [23]: 99.1%; residual activity [24]: 100%; residual activity [25]: 93.6%; residual activity [26]: 88.6%; residual activity [27]: 93.2%; residual activity [28]: 100%; residual activity [29]: 100%; residual activity [30]: 93.4%; residual activity [31]: 79.2%; residual activity [32]: 100%; residual activity [33]: 98.4%; residual activity [34]: 99.6%; residual activity [35]: 100%; residual activity [36]: 91.7%; residual activity [37]: 91.9%; residual activity [38]: 100%

Reference: ChEMBL document CHEMBL4507258 (2021)
